Assay results taken from ChEMBL document CHEMBL5143523, “Construction and activity evaluation of novel benzodioxane derivatives as dual-target antifungal inhibitors” (Eur J Med Chem, 2022).
pIC50: −log10 of the molar value. Values after ≈ are worked out from the molar mass of the structure shown. Active and inactive are the calls of the source. The rule behind the calls is not given here.

Legend:
Pichia kudriavzevii = test: Antifungal activity against Candida krusei ATCC 6258 assessed as fungal growth inhibition measured after 72 hrs by CLSI protocol based liquid medium dilution method; format: functional
Candida albicans [1] = test: Induction of apoptosis in Candida albicans ATCC SC5314 cells assessed as live cells at 8 ug/ml incubated for 72 hrs by Annexin V-FITC/PI staining based flow cytometry method (reference value: 95.56%); format: functional; settings: dose 8 µg/ml
Candida albicans [2] = test: Induction of apoptosis in Candida albicans ATCC SC5314 cells assessed as early apoptotic cells at 8 ug/ml incubated for 72 hrs by Annexin V-FITC/PI staining based flow cytometry method (reference value: 0.56%); format: functional; settings: dose 8 µg/ml
Candida albicans [3] = test: Induction of apoptosis in Candida albicans ATCC SC5314 cells assessed as late apoptotic cells at 8 ug/ml incubated for 72 hrs by Annexin V-FITC/PI staining based flow cytometry method (reference value: 0.12%); format: functional; settings: dose 8 µg/ml
Candida albicans [4] = test: Antifungal activity against Candida albicans ATCC SC5314 assessed as change in eburicol level at 4 ug/ml incubated for 48 hrs by LC-MS analysis (reference value: 1.4%); format: functional; settings: dose 4 µg/ml
[5] = biological target: Lanosterol 14-alpha demethylase (Candida albicans (strain SC5314 / ATCC MYA-2876) (Yeast), UniProt P10613); test: Inhibition of CYP51 in Candida albicans ATCC SC5314 incubated for 30 mins using eburicol as substrate in presence of NADPH by HPLC analysis
[6] = Hepatotoxicity in mouse infected with Candida albicans ATCC SC5314 assessed as change in plasma ALT level at 4 mg/kg, ip administered ever other day for 12 days; format: toxicity, organism-based; settings: in vivo, 288 h, time 12 day
Candida albicans [7] = test: Antifungal activity against fluconazole resistant Candida albicans strain 901 assessed as decrease in fungal cell density at 4 ug/ml by fluorescence microscopy; format: functional, organism-based; settings: dose 4.0 µg/ml
Candida albicans [8] = test: Induction of morphological changes in Candida albicans assessed as leakage of cellular contents at 4 ug/ml measured after 72 hrs by TEM analysis; format: functional, organism-based; settings: dose 4.0 µg/ml
Mus musculus [9] = test: In vivo antifungal activity against Candida albicans ATCC SC5314 infected mouse assessed as reduction in fungal infection region at 4 mg/kg, ip administered ever other day for 12 days; format: functional, organism-based; settings: time 12.0 day
Mus musculus [10] = test: In vivo antifungal activity against Candida albicans ATCC SC5314 infected mouse model assessed as disappearance of pathogenic fungi at 4 mg/kg, ip administered ever other day for 12 days by hematoxyin-eosin staining based microscopic analysis; format: functional, organism-based; settings: time 12.0 day
[11] = Toxicity in mouse infected with Candida albicans ATCC SC5314 assessed as pathological changes in heart at 4 mg/kg, ip administered ever other day for 12 days by hematoxylin and eosin staining based histopathological analysis; format: organism-based; settings: in vivo, 288 h, time 12 day
[12] = Toxicity in mouse infected with Candida albicans ATCC SC5314 assessed as pathological changes in kidney at 4 mg/kg, ip administered ever other day for 12 days by hematoxylin and eosin staining based histopathological analysis; format: organism-based; settings: in vivo, 288 h, time 12 day

Sequence of Lanosterol 14-alpha demethylase (P10613 whole entry): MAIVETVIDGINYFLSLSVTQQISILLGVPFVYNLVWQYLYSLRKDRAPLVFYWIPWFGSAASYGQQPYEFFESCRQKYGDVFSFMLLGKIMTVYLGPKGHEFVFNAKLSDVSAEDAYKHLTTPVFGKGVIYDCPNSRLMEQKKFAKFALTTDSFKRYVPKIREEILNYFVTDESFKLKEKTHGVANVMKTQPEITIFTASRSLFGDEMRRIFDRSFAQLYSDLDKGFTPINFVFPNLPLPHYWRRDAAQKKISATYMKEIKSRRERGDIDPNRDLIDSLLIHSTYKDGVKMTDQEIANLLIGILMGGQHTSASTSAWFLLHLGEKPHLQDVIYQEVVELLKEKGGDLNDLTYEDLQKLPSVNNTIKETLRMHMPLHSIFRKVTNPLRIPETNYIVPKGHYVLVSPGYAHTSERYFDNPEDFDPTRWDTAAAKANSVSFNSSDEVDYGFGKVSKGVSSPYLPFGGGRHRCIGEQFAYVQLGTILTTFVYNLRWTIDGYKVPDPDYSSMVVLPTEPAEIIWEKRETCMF

In the case of CC(C)[C@H](NC(=O)c1cccc2c1OCCO2)C(=O)N[C@@H](Cn1cncn1)c1ccccc1, the MIC50 (Pichia kudriavzevii) was 0.25 µg/mL (≈ 0.556 µM), the Activity (Candida albicans [1]) was 54.5% and the Activity (Candida albicans [2]) was 0.41%. It also gave an Activity (Candida albicans [3]) of 1.78%, an Activity (Candida albicans [4]) of 28.9% and a pIC50 [5] of 6.66. The Activity [6] was 50.5 IU/L, the Activity (Candida albicans [7]) was “Active” and the Activity (Candida albicans [8]) was “Active”. The Activity (Mus musculus [9]) was “Active”, the Activity (Mus musculus [10]) was “Active” and the Activity [11] was “Non-Toxic”. The Activity [12] was “Non-Toxic”.
